Measured values reported in publication PMC4767141, “Discovery of Potent, Orally Bioavailable, Small-Molecule Inhibitors of WNT Signaling from a Cell-Based Pathway Screen” (Journal of Medicinal Chemistry, 2015).
pIC50: −log10 of the molar value. Read-outs that look alike come from different tables or passages of the source.

Tests used:
[1] = target: T1, ACK1 (Homo sapiens, UniProt Q07912); test: Millipore kinase panel; format: biochemical; conditions: read-out: % Control
T1 construct: purchased Millipore KinaseProfiler (kinases); Cerep (receptors and ion channels)

[2] = Plasma stability; format: in vitro ADME
[3] = Clint determination; format: in vitro ADME; conditions: mouse, microsomes, pH 7.4, mouse microsomes, read-out: Clint (μL/min/mg) Mouse
[4] = target: T2, ARG (Homo sapiens, UniProt P42684); test: Millipore kinase panel; format: biochemical; conditions: ATP at Km, read-out: % Control
T2 construct: purchased Millipore KinaseProfiler (kinases); Cerep (receptors and ion channels)

[5] = target: T3, LYN (Homo sapiens, UniProt P07948); test: Millipore kinase panel; format: biochemical; conditions: ATP at Km, read-out: % Control
T3 construct: purchased Millipore KinaseProfiler (kinases); Cerep (receptors and ion channels)

[6] = In vitro reactive metabolite assay; format: in vitro ADME; conditions: data not shown
[7] = Clint determination; format: in vitro ADME; conditions: rat, microsomes, pH 7.4, rat microsomes, read-out: Clint (μL/min/mg) Rat
[8] = target: T4, PI3K DELTA (Homo sapiens, UniProt O00329); test: Millipore kinase panel; format: biochemical; conditions: read-out: % Control
T4 construct: purchased Millipore KinaseProfiler (kinases); Cerep (receptors and ion channels)

[9] = target: T5, P70S6K (Homo sapiens, UniProt P23443); test: Millipore kinase panel; format: biochemical; conditions: read-out: % Control
T5 construct: purchased Millipore KinaseProfiler (kinases); Cerep (receptors and ion channels)

[10] = target: T6, AURKC (Homo sapiens, UniProt Q9UQB9); test: Millipore kinase panel; format: biochemical; conditions: read-out: % Control
T6 construct: purchased Millipore KinaseProfiler (kinases); Cerep (receptors and ion channels)

[11] = test system: BZD (central); test: CEREP binding panel; conditions: 10 μM, agonist radioligand
[12] = target: T7, CKIT(D816H) (Homo sapiens, UniProt P10721, D816H); test: Millipore kinase panel; format: biochemical; conditions: read-out: % Control
T7 construct: purchased Millipore KinaseProfiler (kinases); Cerep (receptors and ion channels)
T7 sequence (P10721 26-976 D816H): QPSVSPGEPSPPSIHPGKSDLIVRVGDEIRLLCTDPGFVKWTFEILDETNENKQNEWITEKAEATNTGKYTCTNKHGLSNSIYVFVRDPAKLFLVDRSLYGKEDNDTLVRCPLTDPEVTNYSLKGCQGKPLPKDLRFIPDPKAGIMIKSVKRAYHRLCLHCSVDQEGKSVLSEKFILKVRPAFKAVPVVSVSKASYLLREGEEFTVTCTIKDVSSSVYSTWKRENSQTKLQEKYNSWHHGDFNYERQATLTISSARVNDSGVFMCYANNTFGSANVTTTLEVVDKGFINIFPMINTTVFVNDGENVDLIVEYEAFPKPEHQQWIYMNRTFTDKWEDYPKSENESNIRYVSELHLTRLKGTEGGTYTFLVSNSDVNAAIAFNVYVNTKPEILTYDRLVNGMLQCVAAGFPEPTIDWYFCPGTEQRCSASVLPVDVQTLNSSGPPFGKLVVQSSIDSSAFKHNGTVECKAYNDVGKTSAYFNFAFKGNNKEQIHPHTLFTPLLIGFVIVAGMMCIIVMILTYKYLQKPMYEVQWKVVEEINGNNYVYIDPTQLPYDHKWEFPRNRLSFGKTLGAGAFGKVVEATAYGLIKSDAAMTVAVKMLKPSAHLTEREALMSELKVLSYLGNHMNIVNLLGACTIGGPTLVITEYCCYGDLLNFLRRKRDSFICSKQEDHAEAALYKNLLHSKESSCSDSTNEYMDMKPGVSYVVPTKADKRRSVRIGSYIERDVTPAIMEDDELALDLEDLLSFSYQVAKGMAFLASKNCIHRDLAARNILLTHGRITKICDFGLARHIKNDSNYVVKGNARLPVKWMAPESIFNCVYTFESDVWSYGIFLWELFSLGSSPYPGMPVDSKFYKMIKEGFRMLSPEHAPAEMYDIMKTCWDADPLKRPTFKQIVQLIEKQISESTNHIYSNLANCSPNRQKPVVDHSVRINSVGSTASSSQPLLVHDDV

[13] = target: T8, BTK(R28H) (Homo sapiens, UniProt Q06187, R28H); test: Millipore kinase panel; format: biochemical; conditions: read-out: % Control
T8 construct: purchased Millipore KinaseProfiler (kinases); Cerep (receptors and ion channels)

[14] = target: T9, PKBBETA (Homo sapiens, UniProt P31751); test: Millipore kinase panel; format: biochemical; conditions: read-out: % Control
T9 construct: purchased Millipore KinaseProfiler (kinases); Cerep (receptors and ion channels)

[15] = target: T10, CAMKIIDELTA (Homo sapiens, UniProt Q13557); test: Millipore kinase panel; format: biochemical; conditions: read-out: % Control
T10 construct: purchased Millipore KinaseProfiler (kinases); Cerep (receptors and ion channels)
T10 sequence (Q13557 whole entry): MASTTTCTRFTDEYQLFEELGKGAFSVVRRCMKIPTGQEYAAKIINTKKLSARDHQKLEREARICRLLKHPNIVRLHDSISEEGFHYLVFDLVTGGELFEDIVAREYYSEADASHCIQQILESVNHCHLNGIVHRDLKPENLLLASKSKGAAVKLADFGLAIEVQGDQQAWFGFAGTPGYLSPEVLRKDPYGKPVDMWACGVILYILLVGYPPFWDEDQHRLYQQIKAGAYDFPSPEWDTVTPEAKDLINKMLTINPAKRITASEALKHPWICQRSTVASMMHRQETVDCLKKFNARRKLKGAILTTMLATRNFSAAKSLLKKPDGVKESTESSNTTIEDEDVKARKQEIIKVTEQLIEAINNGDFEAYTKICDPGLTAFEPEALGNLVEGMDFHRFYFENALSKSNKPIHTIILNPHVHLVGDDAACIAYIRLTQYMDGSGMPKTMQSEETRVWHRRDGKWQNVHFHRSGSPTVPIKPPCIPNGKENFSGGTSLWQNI

[16] = target: T11, FGFR2(N549H) (Homo sapiens, UniProt P21802, N549H); test: Millipore kinase panel; format: biochemical; conditions: read-out: % Control
T11 construct: purchased Millipore KinaseProfiler (kinases); Cerep (receptors and ion channels)

[17] = target: T12, CKIT(V654A) (Homo sapiens, UniProt P10721, V654A); test: Millipore kinase panel; format: biochemical; conditions: read-out: % Control
T12 construct: purchased Millipore KinaseProfiler (kinases); Cerep (receptors and ion channels)
T12 sequence (P10721 26-976 V654A): as the sequence (P10721 26-976 D816H) above, with V629A, H791D counted along it

[18] = target: T13, PKCETA (Homo sapiens, UniProt P24723); test: Millipore kinase panel; format: biochemical; conditions: read-out: % Control
T13 construct: purchased Millipore KinaseProfiler (kinases); Cerep (receptors and ion channels)

[19] = target: T14, CDK1/CYCLINB (Homo sapiens, UniProt P06493); test: Millipore kinase panel; format: biochemical; conditions: read-out: % Control
T14 construct: purchased Millipore KinaseProfiler (kinases); Cerep (receptors and ion channels)

[20] = target: T15, PKCGAMMA (Homo sapiens, UniProt P05129); test: Millipore kinase panel; format: biochemical; conditions: read-out: % Control
T15 construct: purchased Millipore KinaseProfiler (kinases); Cerep (receptors and ion channels)

[21] = target: T16, CHK2(I157T) (Homo sapiens, UniProt O96017, I157T); test: Millipore kinase panel; format: biochemical; conditions: read-out: % Control
T16 construct: purchased Millipore KinaseProfiler (kinases); Cerep (receptors and ion channels)

[22] = target: CYP450 2B8 (Homo sapiens, UniProt P20813); test: CYP450 inhibition
[23] = target: T17, CK1GAMMA2 (Homo sapiens, UniProt P78368); test: Millipore kinase panel; format: biochemical; conditions: read-out: % Control
T17 construct: purchased Millipore KinaseProfiler (kinases); Cerep (receptors and ion channels)
T17 sequence (P78368 whole entry): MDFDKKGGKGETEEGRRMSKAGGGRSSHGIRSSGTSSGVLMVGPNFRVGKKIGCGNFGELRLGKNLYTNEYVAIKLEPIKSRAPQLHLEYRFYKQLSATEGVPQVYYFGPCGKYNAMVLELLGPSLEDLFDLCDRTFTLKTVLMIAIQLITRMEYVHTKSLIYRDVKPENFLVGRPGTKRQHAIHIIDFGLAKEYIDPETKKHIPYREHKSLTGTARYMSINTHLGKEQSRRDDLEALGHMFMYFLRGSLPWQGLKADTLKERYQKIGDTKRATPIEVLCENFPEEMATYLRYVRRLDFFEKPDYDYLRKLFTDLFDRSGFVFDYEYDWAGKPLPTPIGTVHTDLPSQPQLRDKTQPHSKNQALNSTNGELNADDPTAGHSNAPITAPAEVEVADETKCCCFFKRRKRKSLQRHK

[24] = target: T18, TIE2(R849W) (Homo sapiens, UniProt Q02763, R849W); test: Millipore kinase panel; format: biochemical; conditions: read-out: % Control
T18 construct: purchased Millipore KinaseProfiler (kinases); Cerep (receptors and ion channels)

[25] = target: T19, MER (Homo sapiens, UniProt Q12866); test: Millipore kinase panel; format: biochemical; conditions: read-out: % Control
T19 construct: purchased Millipore KinaseProfiler (kinases); Cerep (receptors and ion channels)

[26] = target: T20, PKBALPHA (Homo sapiens, UniProt P31749); test: Millipore kinase panel; format: biochemical; conditions: read-out: % Control
T20 construct: purchased Millipore KinaseProfiler (kinases); Cerep (receptors and ion channels)

[27] = target: CYP450 2C9 (Homo sapiens, UniProt P11712); test: CYP450 inhibition; format: in vitro ADME
[28] = target: T21, SRC(T341M) (Homo sapiens, UniProt P12931, T341M); test: Millipore kinase panel; format: biochemical; conditions: read-out: % Control
T21 construct: purchased Millipore KinaseProfiler (kinases); Cerep (receptors and ion channels)

[29] = target: T22, PDGFRALPHA(V561D) (Homo sapiens, UniProt P16234, V561D); test: Millipore kinase panel; format: biochemical; conditions: read-out: % Control
T22 construct: purchased Millipore KinaseProfiler (kinases); Cerep (receptors and ion channels)

[30] = target: T23, ABL (H396P) (Homo sapiens, UniProt P00519, H396P); test: Millipore kinase panel; format: biochemical; conditions: read-out: % Control
T23 construct: purchased Millipore KinaseProfiler (kinases); Cerep (receptors and ion channels)

[31] = target: T24, TAO2 (Homo sapiens, UniProt Q9UL54); test: Millipore kinase panel; format: biochemical; conditions: read-out: % Control
T24 construct: purchased Millipore KinaseProfiler (kinases); Cerep (receptors and ion channels)
T24 sequence (Q9UL54 whole entry): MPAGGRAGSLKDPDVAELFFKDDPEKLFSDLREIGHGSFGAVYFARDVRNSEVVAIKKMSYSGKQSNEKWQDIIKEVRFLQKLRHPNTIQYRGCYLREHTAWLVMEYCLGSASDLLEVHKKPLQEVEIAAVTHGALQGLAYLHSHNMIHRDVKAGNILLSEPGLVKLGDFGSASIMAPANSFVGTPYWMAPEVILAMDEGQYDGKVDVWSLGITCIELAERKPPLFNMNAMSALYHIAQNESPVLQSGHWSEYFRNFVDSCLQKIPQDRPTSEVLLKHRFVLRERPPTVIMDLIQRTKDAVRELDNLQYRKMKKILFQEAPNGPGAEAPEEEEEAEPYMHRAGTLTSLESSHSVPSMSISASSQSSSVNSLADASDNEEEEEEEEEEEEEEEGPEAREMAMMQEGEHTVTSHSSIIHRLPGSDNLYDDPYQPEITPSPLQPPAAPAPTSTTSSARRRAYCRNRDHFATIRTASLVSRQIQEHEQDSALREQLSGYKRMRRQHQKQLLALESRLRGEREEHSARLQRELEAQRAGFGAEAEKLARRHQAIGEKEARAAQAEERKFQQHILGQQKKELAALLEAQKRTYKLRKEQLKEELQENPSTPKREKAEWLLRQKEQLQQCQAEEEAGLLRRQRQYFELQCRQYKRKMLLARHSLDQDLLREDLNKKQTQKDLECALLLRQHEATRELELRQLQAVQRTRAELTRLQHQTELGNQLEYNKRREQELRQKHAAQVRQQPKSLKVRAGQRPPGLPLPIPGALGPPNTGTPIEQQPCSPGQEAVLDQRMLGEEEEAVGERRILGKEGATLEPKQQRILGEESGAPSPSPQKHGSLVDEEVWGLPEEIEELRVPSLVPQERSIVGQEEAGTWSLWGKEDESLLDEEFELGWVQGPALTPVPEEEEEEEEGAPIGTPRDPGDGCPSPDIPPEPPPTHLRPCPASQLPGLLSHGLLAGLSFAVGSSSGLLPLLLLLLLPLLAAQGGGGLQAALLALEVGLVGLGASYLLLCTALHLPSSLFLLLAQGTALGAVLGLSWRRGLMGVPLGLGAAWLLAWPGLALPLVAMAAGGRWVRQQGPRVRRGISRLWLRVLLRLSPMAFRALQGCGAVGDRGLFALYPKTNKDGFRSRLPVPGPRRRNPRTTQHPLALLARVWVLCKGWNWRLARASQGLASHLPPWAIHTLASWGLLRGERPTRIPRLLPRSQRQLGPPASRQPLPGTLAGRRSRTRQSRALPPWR

[32] = target: CYP450 3A4 (Homo sapiens, UniProt P08684); test: CYP450 inhibition; format: in vitro ADME
[33] = target: T25, EGFR(T790M) (Homo sapiens, UniProt P00533, T790M); test: Millipore kinase panel; format: biochemical; conditions: read-out: % Control
T25 construct: purchased Millipore KinaseProfiler (kinases); Cerep (receptors and ion channels)
T25 sequence (P00533 25-1210 T790M): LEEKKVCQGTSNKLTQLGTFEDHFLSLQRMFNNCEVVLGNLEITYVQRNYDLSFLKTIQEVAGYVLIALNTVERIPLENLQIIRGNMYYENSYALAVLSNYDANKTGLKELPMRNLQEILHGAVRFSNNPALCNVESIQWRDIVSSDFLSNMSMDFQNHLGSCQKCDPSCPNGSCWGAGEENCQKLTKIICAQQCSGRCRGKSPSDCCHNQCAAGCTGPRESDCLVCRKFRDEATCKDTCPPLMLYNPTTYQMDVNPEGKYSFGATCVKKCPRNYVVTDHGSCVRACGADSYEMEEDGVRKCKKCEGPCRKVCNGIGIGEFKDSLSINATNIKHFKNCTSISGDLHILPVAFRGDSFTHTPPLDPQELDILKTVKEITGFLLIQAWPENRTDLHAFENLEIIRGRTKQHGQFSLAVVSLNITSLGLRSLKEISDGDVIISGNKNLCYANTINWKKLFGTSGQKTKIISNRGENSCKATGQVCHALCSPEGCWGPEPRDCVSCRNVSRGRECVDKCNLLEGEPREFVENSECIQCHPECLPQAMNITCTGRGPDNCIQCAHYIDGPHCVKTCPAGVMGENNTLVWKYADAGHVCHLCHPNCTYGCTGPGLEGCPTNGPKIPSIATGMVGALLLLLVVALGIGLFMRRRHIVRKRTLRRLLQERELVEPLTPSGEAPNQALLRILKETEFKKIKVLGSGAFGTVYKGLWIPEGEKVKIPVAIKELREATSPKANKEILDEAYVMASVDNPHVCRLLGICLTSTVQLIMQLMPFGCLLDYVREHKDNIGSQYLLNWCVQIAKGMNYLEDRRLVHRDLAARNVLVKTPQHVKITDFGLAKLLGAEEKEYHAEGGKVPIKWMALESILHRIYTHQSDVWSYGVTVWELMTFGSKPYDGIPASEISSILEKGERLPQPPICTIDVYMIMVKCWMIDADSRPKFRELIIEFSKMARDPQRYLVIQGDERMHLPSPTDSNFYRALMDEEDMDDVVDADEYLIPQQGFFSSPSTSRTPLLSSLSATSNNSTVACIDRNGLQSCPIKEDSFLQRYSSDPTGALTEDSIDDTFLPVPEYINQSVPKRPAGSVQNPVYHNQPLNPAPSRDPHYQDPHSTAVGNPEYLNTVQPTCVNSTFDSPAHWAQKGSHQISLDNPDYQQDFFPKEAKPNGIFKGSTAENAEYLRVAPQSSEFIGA

[34] = test system: RKO-F1522 cells; test: EF1-α promoter firefly luciferase control reporter; conditions: Homo sapiens, read-out: IC50, firefly luciferase reporter downstream of the EF1-α promoter
[35] = target: T26, PKCBII (Homo sapiens, UniProt P05771); test: Millipore kinase panel; format: biochemical; conditions: read-out: % Control
T26 construct: purchased Millipore KinaseProfiler (kinases); Cerep (receptors and ion channels)
T26 sequence (P05771 1-673 isoform P05771-2): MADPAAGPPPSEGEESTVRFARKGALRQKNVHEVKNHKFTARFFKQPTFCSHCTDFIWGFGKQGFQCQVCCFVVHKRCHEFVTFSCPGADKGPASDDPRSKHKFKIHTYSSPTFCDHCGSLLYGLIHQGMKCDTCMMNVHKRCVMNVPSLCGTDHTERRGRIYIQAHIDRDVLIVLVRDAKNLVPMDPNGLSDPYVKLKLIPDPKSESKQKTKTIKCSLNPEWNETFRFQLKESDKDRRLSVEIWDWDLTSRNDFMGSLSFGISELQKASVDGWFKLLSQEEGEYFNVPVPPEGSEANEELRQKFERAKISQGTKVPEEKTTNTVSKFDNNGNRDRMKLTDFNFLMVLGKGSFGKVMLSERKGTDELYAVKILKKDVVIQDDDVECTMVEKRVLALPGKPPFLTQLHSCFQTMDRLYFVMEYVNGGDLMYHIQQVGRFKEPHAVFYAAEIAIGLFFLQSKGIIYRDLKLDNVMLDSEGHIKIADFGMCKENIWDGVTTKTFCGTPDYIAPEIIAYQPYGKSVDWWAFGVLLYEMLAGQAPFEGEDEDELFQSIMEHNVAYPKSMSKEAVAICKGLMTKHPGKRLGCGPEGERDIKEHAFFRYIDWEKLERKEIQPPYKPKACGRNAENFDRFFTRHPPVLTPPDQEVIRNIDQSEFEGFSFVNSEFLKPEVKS

O=C1NCCC12CCN(c1c(Cl)cncc1-c1ccc(N3CCOCC3)cc1)CC2 [Compound 44, 8-(3-Chloro-5-(4-morpholin-4-ylphenyl)pyridin-4-yl)-2,8-diazaspiro[4.5]decan-1-one]
remaining activity at 1 µM [1]: 0% | plasma instability [2]: no plasma instability was observed | microsomal CLint at 1 μM [3]: 290 µL/min/mg | remaining activity at 1 µM [4]: -12% | remaining activity at 1 µM [5]: 31% | glutathione adduct in an in vitro reactive metabolite assay [6]: generated a glutathione adduct | microsomal CLint at 1 μM [7]: 41 µL/min/mg

Cn1cc(-c2ccc(-c3cncc(Cl)c3N3CCC4(CCNC4=O)CC3)cc2)cn1 [Compound 74, 8-(3-Chloro-5-(4-(1-methyl-1H-pyrazol-4-yl)phenyl)pyridin-4-yl)-2,8-diazaspiro[4.5]decan-1-one]
remaining activity at 1 µM [8]: -2% | remaining activity at 1 µM [9]: -15% | remaining activity at 1 µM [10]: -10% | % Inhibition of Control Specific Binding [11]: 18% | remaining activity at 1 µM [12]: -7% | remaining activity at 1 µM [13]: -4% | remaining activity at 1 µM [14]: -13% | remaining activity at 1 µM [15]: 4% | remaining activity at 1 µM [16]: 1% | remaining activity at 1 µM [17]: -16% | remaining activity at 1 µM [18]: -13% | remaining activity at 1 µM [19]: -9% | remaining activity at 1 µM [20]: 2% | remaining activity at 1 µM [21]: 2% | pIC50 [22]: < 4.70 | remaining activity at 1 µM [23]: 10% | remaining activity at 1 µM [24]: -6% | remaining activity at 1 µM [25]: -6% | remaining activity at 1 µM [26]: 2% | pIC50 [27]: 5.38 | remaining activity at 1 µM [28]: -6% | remaining activity at 1 µM [29]: 6% | remaining activity at 1 µM [30]: 17% | remaining activity at 1 µM [31]: -15% | pIC50 [32]: 4.94 | remaining activity at 1 µM [33]: 0% | pIC50 [34]: < 5.00 | remaining activity at 1 µM [35]: -3%
